From patent publication US20250340543A1, “GPR84 ANTAGONISTS AND USES THEREOF” (Liminal BioSciences Limited, priority 2021, published 2025)
pIC50: −log10 of the molar value.

Biological target: GPR84 (Homo sapiens (Human), UniProt Q9NQS5)
Assay: Gai biosensor BRET assay (GPR84-mediated activation of Gai, antagonist mode against agonist ZQ-16)
Type: cell-based
Details: for pIC50: HEK293 cells, 200 nmol/L GPR84 agonist ZQ-16, read-out: hGPR84 IC50; for inhibition at 25 µM: compound tested at 25 μM (concentration code G); for inhibition at 2 µM: compound tested at 2 μM (concentration code A); for inhibition at 10 µM: compound tested at 10 μM (concentration code D)
In short: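 Transiently transfected HEK293 cells expressing GPR84, Gαi2-Rluc8, GFP10-Gγ2 and Gβ1, in Tyrode's buffer pH 7.5. Compounds pre-incubated 5 min at 37° C, then 200 nmol/L ZQ-16 for 5 min at room temperature; BRET² with coelenterazine 400A, ligand-promoted net BRET after background and vehicle subtraction.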

GPR84, sequence (Q9NQS5 whole entry): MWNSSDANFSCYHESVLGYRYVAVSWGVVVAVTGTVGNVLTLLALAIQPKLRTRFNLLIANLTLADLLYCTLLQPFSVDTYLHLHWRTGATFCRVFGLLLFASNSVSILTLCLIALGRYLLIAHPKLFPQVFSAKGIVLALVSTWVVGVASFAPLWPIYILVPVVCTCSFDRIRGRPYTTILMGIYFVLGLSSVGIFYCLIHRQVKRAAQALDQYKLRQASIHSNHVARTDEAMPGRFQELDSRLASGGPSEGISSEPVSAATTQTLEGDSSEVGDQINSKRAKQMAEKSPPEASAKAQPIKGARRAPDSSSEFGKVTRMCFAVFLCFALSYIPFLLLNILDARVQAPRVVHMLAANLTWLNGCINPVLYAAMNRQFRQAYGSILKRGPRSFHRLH

Row | Compound | inhibition at 25 µM | inhibition at 10 µM | further results
1 | COc1cc(OCC2COCCO2)cc(-c2ccc(-c3ccc(C)nc3)cc2)n1 (stereo not shown) [Compound I-51] | 25 to 50% |  | pIC50: < 4.60
2 | COc1cc(OCC2COCCO2)cc(-c2ccc(OCC(F)(F)F)cc2)c1 (stereo not shown) [Compound I-166] |  |  | inhibition at 5 µM (compound tested at 5 μM (concentration code C)): < 25%
3 | Cc1cc(OCc2cnccn2)cc(=O)n1[C@H](C)c1ccc(C#CC2CC2)cc1 [Compound I-257] |  |  | pIC50: > 5.30; inhibition at 2 µM: > 75%
4 | COc1cc(OCC2COCCO2)cc(-c2ccc(C#CCNc3ccccc3)cc2)n1 (stereo not shown) [Compound I-130] | < 25% |  | 
5 | Cc1cc(OCc2cnn(C)c2)cc(=O)n1[C@H](C)c1ccc(C#CC2CC2)cc1 [Compound I-352] |  | > 75% | 
6 | COc1cc(OCC2CCCCO2)cc(-c2ccc(-c3ccc(C)nc3)cc2C)n1 (stereo not shown) [Compound I-19] | 50 to 75% |  | 
7 | Cc1cc(OC[C@@H]2COCCO2)cc(=O)n1Cc1cccc(C#CC2CC2)c1 [Compound I-233] |  | 25 to 50% | 
8 | Cc1cc(OCc2cncs2)cc(=O)n1[C@H](C)c1ccc(C#CC2CC2)cc1 [Compound I-311] |  |  | inhibition at 2 µM: > 75%
9 | Cc1cc(OCc2ncccn2)cc(=O)n1C(C)c1ccc(C#CC2CC2)c(F)c1 (stereo not shown) [Compound I-273] |  | > 75% | pIC50: > 5.30
10 | COc1cc(OCC2COCCO2)cc(-c2cccc(-c3ccc(C)nc3)c2)n1 (stereo not shown) [Compound I-66] |  |  | inhibition at 15 µM (compound tested at 15 μM (concentration code F)): < 25%
11 | Cc1cc(OCC2CCOCC2)cc(=O)n1[C@H](C)c1ccc(C#CC2CC2)cc1 (stereo in doubt) [Compound I-20] |  | 50 to 75% | 
12 | Cc1cc(OCc2ncccn2)cc(=O)n1[C@H](C)c1ccc(C#Cc2ccccc2)cc1 [Compound I-329] |  | < 25% | 
13 | CC(c1ccc(C#CC2CC2)cn1)n1ccc(OC[C@@H]2COCCO2)cc1=O (stereo partly shown) [Compound I-240] |  | 25 to 50% | 
14 | Cc1cc(OCc2ncccn2)cc(=O)n1CCc1ccc(C#CC2CC2)cc1 [Compound I-238] |  | > 75% | 
15 | [O-][n+]1cc(OCC2COCCO2)cc(-c2ccc(OCC(F)(F)F)cc2)c1 (stereo not shown) [Compound I-59] | 25 to 50% |  | 
16 | Cc1cc(OC[C@H]2COc3ncccc3O2)cc(=O)n1Cc1cccc(C#CC2CC2)c1 [Compound I-118] |  | < 25% | 

Row | Compound | inhibition at 25 µM | inhibition at 10 µM | further results
17 | Cc1ccc(N2CCN(c3cc(OCC4COCCO4)nc(=O)n3C)CC2)cn1 (stereo not shown) [Compound I-86] | < 25% |  | 
18 | COc1ccc([C@@H](C)n2c(C)cc(OCC3COCCO3)cc2=O)cc1 (stereo partly shown) [Compound I-218] |  | 25 to 50% | 
19 | Cc1cc(OCC(F)(F)F)ccc1-c1cncc(OCC2CCCCO2)c1 (stereo not shown) [Compound I-56] |  | 25 to 50% | 
20 | Cc1cc(OC[C@@H]2COCCO2)cc(=O)n1[C@H](C)c1ccc(C#CC2CC2)cc1 [Compound I-6] |  | > 75% | 
21 | CC(c1ccc(C#CC2CC2)cc1)n1c(Cl)cc(OCc2ncccn2)cc1=O (stereo not shown) [Compound I-321] |  | > 75% | 
22 | CCCOc1ccc(C(C)n2c(C)cc(OCc3ncccn3)cc2=O)cc1 (stereo not shown) [Compound I-343] |  | < 25% | 
23 | Cc1cc(C#CC2CC2)ccc1Cn1c(C)cc(OCC2COCCO2)cc1=O (stereo not shown) [Compound I-101] | < 25% |  | 
24 | Clc1cc(OCC2COCCO2)cc(-c2ccc(C#CCNc3ccccc3)cc2)n1 (stereo not shown) [Compound I-109] | < 25% |  | 
25 | Cc1cc(C#CC2CC2)ccc1-c1cncc(OCC2CCCCO2)c1 (stereo not shown) [Compound I-24] | 50 to 75% |  | 
26 | Cc1cc(OCC2COCCO2)cc(=O)n1Cc1cccc(OCc2ccccc2)c1 (stereo not shown) [Compound I-82] |  | < 25% | 
27 | COc1cc(OCC2CCCOC2)cc(-c2ccc(-c3ccc(C)nc3)cc2C)n1 (stereo not shown) [Compound I-45] | 25 to 50% |  | 
28 | CCc1cc(OCC2COCCO2)cc(OCc2ccc(C#CC3CC3)cc2)n1 (stereo not shown) [Compound I-72] | < 25% |  | 
29 | Cc1ccc(C#CC2CC2)cc1Cn1c(C)cc(OCC2COCCO2)cc1=O (stereo not shown) [Compound I-115] |  | < 25% | 
30 | Cc1cc(OCc2ncccn2)cc(=O)n1C(C)c1ccc(C#CC2CCC2)c(F)c1 (stereo not shown) [Compound I-366] |  | > 75% | 
31 | Cc1cc(OCc2ncccn2)cc(=O)n1-c1ccc(C#CC2CC2)cc1 [Compound I-244] |  | < 25% | 
